Source: patent US20090142715A1, “LAMINATED RESIST USED FOR IMMERSION LITHOGRAPHY” (DAIKIN INDUSTRIES LTD., priority 2004, published 2009)
Read-outs that look alike come from different tables or passages of the source.

Assay: Measurement of pKa value of monomer having hydrophilic functional group Y by NaOH titration
Assay type: physicochemical
Conditions: titration in water/acetone with NaOH, corrected by blank
Description: The method of measuring and calculating a pKa value is mentioned below using 1,1-bistrifluoromethyl-3-buten-1-ol:
In a water/acetone solution of 10/15 ml was poured 0.7865 g of CH2═CHCH2C(CF3)2OH, followed by stirring at room temperature. After it was confirmed that the solution was homogeneous, titration was carried out with 0.2 mole/L NaOH solution. A titration curve was obtained by adding the NaOH solution dropwise in increments of 0.15 ml and recording a pH value at every addition. An equivalence point was determined by an inflection point (maximum differential value of titration curve=dpH/dml) of the titration curve. In this case, the equivalence point was 14.5 ml. […] From a titration curve of water/acetone solution and aqueous solution which had been measured previously as a blank solution, a difference in a pH value derived from an electric potential difference between the solutions at titration of 7.25 ml was 1.29.
In the case of titration of 1.0865 g of CH2═CHCH2C(CF3)2OH by the same procedures as above, an equivalence point was 20.15 ml and a half of the equivalence point was 10.08 ml. A pH value at a half of the equivalence point was 10.78.
When the same procedures as above were carried out by changing the titration solution to about 0.05 mole/L NaOH, an equivalence point of 0.115 g of CH2═CHCH2C(CF3)2OH was 8.00 ml and a half of the equivalence point was 4.00 ml. A pH value at this time was 10.92.
With respect to the various fluorine-containing ethylenic monomers having OH group shown in Table 2, a pKa value was measured by the same procedures as above.

[1] = water/acetone solution, read-out: pKa

| Compound | pKa [1] | pKa |
| --- | --- | --- |
| O=C(O)C1(F)CC2C=CC1C2 (centres unmarked) | 3.8 |  |
| 1,1,9,9-tetrahydro-2,5-bistrifluoromethyl-3,6-dioxa-8-nonenol |  | 12.6 |
| C=CCC(O)(C(F)(F)F)C(F)(F)F [1,1-bistrifluoromethyl-3-buten-1-ol] |  | 9.6 |
| C=C(F)C(=O)O [CH2═CF—COOH, α-fluoroacrylic acid] | 3.4 |  |
| C=C(F)C(F)(F)OC(F)(C(F)(F)F)C(F)(F)OC(F)(C(=O)O)C(F)(F)F (centres unmarked) [perfluoro-(9,9-dihydro-2,5-bistrifluoromethyl-3,6-dioxa-8-nonenoic acid)] |  | 3.6 |
